The structures appear in SMILES notation.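 The compound was tested at five concentrations on cells cultured in 96-well plates, with a 48-hour exposure period. The concentration for 50% growth inhibition is given as GI50.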 Active and inactive are the calls of the source. No stated cut-off is given here; in the data, active = GI50 up to about 1.1 µM and inactive = higher. A value given as a limit tells only on which side of the number the result lay.

The values below come from ChEMBL document CHEMBL1201862, “PubChem BioAssay data set” (2004).

Some test systems named below: M19-MEL; HOP-18; KM-20L2; SNB-78; XF498; LXFL 529; DLD-1; DMS-273; RXF 631.
What all share (assay): NCI anticancer screen, dose series, 48 h

For `COC1OC2COC(C)(C)OC2C(OC(C)=O)C1NC(=O)N(CCCl)N=O` (centres undefined), the GI50 in the assay on M19-MEL, in the assay on HOP-18, in the assay with KM-20L2, in the assay on SNB-78, with XF498 and in the assay on LXFL 529 was > 100 µM (inactive) in each case. For the same compound, the GI50 in the assay on DLD-1 and in the assay on DMS-273 was > 100 µM (inactive) throughout.

As for `N#C/C(=C/c1cccnc1)C(=O)c1ccccc1`, the GI50 in the assay with M19-MEL, in the assay on HOP-18, in the assay on KM-20L2, in the assay on SNB-78, in the assay with XF498 and in the assay with LXFL 529 was > 100 µM (inactive) in each case. In addition, the GI50 in the assay on DLD-1 and in the assay on DMS-273 was > 100 µM (inactive) throughout.

For the compound `CC(=O)OCC1C(=O)OCC1C(=O)N1Cc2cc3ccccc3nc2C1` (centres undefined), the GI50 in the assay with M19-MEL was 8.05 µM (inactive); with HOP-18, 2.47 µM (inactive); with KM-20L2 it was 3.84 µM (inactive); in the assay on XF498, 1.82 µM (inactive); in the assay on LXFL 529, 1.8 µM (inactive); in the assay on DLD-1 it was 1.61 µM (inactive). For the same compound, the GI50 with DMS-273 was 5.09 µM (inactive).

In the case of `COc1cc2c(c3c1c(=O)c1ccccc1n3C)C=CC(C)(C)O2` [ACRONINE], the GI50 was 72.3 µM (inactive) in the assay with M19-MEL; 56 µM (inactive) in the assay with HOP-18; 49.9 µM (inactive) with KM-20L2; > 100 µM (inactive) with SNB-78; 94 µM (inactive) in the assay on LXFL 529; > 100 µM (inactive) in the assay with DLD-1. Moreover, in the assay with DMS-273, the GI50 is 23.3 µM (inactive).

With `COc1cc(/C=C/c2ccc(OC)c(OC)c2OC)cc(OC)c1OC`, the GI50 with M19-MEL is 20.2 µM (inactive); in the assay on HOP-18, 17.5 µM (inactive); in the assay on RXF 631 it was 20 µM (inactive); in the assay with KM-20L2 it was 20.2 µM (inactive); with SNB-78, 17.3 µM (inactive); with XF498, 25.5 µM (inactive). Moreover, the values for the GI50 with LXFL 529, in the assay on DLD-1 and in the assay on DMS-273 were 17.3 µM (inactive), 18.3 µM (inactive) and 16.4 µM (inactive), respectively.

Consider `CC[S+](C)c1ccc(-c2c3nc(c(-c4ccc([S+](C)CC)cc4)c4ccc([nH]4)c(-c4ccc([S+](C)CC)cc4)c4nc(c(-c5ccc([S+](C)CC)cc5)c5ccc2[nH]5)C=C4)C=C3)cc1.[O-][Cl+3]([O-])([O-])[O-].[O-][Cl+3]([O-])([O-])[O-].[O-][Cl+3]([O-])([O-])[O-].[O-][Cl+3]([O-])([O-])[O-]` (centres undefined), for which the GI50 is 40.9 µM (inactive) with M19-MEL; 14.1 µM (inactive) in the assay with KM-20L2; 56.2 µM (inactive) in the assay with SNB-78; 0.881 µM (active) in the assay with XF498; 10.1 µM (inactive) with LXFL 529; 34.4 µM (inactive) in the assay on DMS-273.

As to `Cc1cc2c(c3nocc13)C(=O)c1ccccc1C2=O`, the GI50 with M19-MEL, with HOP-18, in the assay on RXF 631, in the assay on KM-20L2, in the assay on LXFL 529 and in the assay with DLD-1 was > 100 µM (inactive) each time. Besides, the GI50 in the assay with DMS-273 is > 100 µM (inactive).

As for `Cc1ccc([S+]([O-])C(C)C(Cl)c2ccccc2)cc1` (centres undefined), the GI50 with M19-MEL was 54.3 µM (inactive); with HOP-18 it was > 100 µM (inactive); in the assay on KM-20L2 it was > 100 µM (inactive); in the assay on SNB-78, > 100 µM (inactive); with LXFL 529 it was 81.1 µM (inactive); with DLD-1, > 100 µM (inactive). Moreover, the GI50 with DMS-273 is > 100 µM (inactive).

For the compound `CC(=O)NC1C(OCc2ccccc2)OC(COC(=O)CCCCCCCCCCNC(=O)c2cccc3c(=O)c4ccccc4[nH]c23)C(O)C1OC(C)C(=O)NC(C)C(=O)NC(CCC(N)=O)C(N)=O` (centres undefined), the GI50 in the assay on M19-MEL was 75.5 µM (inactive); in the assay with HOP-18 it was 59 µM (inactive); with RXF 631 it was 19.5 µM (inactive); with KM-20L2, > 100 µM (inactive); in the assay with SNB-78, 99.1 µM (inactive); with XF498, 38.7 µM (inactive). For the same compound, the values for the GI50 in the assay on LXFL 529, with DLD-1 and in the assay with DMS-273 were 37.3 µM (inactive), 95.9 µM (inactive) and 57.8 µM (inactive), respectively.

With `[N-]=[N+]=NC1C(Br)C(=O)NC(=O)N1[C@H]1C[C@H](O)[C@@H](CO)O1` (some centres undefined), the GI50 in the assay on KM-20L2, in the assay with SNB-78, in the assay with XF498, with LXFL 529, with DLD-1 and in the assay with DMS-273 was > 100 µM (inactive) each time.

Take `N/N=c1\c2ccccc2c2cc3c(cc12)/c(=N/N)c1ccccc13`: the GI50 with M19-MEL, with HOP-18, with RXF 631, with KM-20L2, with SNB-78 and in the assay on LXFL 529 was > 100 µM (inactive) each time. The GI50 in the assay on DLD-1 and in the assay on DMS-273 was > 100 µM (inactive) throughout.

`COc1ccc(C2CC(c3cc(C)ccc3O)=NC(N)=N2)cc1` (centres undefined): the GI50 in the assay with M19-MEL, in the assay with HOP-18, with KM-20L2, in the assay on SNB-78, in the assay with XF498 and with LXFL 529 was > 100 µM (inactive) in each case. Moreover, the GI50 with DLD-1 and in the assay on DMS-273 was > 100 µM (inactive) in each case.

As to `CCCCCCCCCCCCCC(=O)OC(/C=C/C(C)C)C(O)C(O)C(OC)C(=O)NC1CCCCNC1=O` (centres undefined), the GI50 was 2.23 µM (inactive) in the assay with HOP-18; 1.46 µM (inactive) in the assay on KM-20L2; 2.82 µM (inactive) in the assay on SNB-78; 1.78 µM (inactive) with XF498; 1.39 µM (inactive) in the assay with LXFL 529; 0.637 µM (active) in the assay with DLD-1. Further, the GI50 in the assay on DMS-273 was 0.0916 µM (active).

Turning to `O=C(CSc1nnc(-c2ccc(/N=C\c3ccc(Cl)cc3)cc2)o1)Nc1ccc(Cl)cc1`, the GI50 in the assay with M19-MEL, with HOP-18, with KM-20L2, with SNB-78, with XF498 and in the assay on LXFL 529 was > 100 µM (inactive) each time. The GI50 with DMS-273 was > 100 µM (inactive).

Regarding `CC(C)C/C(CC(=O)CCC(=O)Nc1ccccc1[N+](=O)[O-])=N\NC(=O)c1cc2ccccc2cc1O`, the GI50 in the assay on M19-MEL was 24.2 µM (inactive); with HOP-18, 21.8 µM (inactive); in the assay with RXF 631, 31.2 µM (inactive); in the assay on KM-20L2, 32.1 µM (inactive); in the assay with XF498 it was 30.7 µM (inactive); in the assay on LXFL 529, 29.7 µM (inactive). For the same compound, in the assay with DLD-1, the GI50 was 55.2 µM (inactive).

As to `CCOC12SC(Nc3ccc(C)cc3)=NN1C(=S)N(C)N=C2C` (centres undefined), the GI50 with M19-MEL, in the assay on HOP-18, in the assay with KM-20L2, in the assay on LXFL 529, with DLD-1 and with DMS-273 was > 100 µM (inactive) in each case.

Take `N#CC12CCC1C1CCCCC12N1CCSCC1` (centres undefined): the GI50 with M19-MEL, in the assay with HOP-18, with KM-20L2, in the assay with SNB-78, in the assay on XF498 and in the assay on LXFL 529 was > 100 µM (inactive) throughout. Further, the GI50 with DLD-1 and in the assay with DMS-273 was > 100 µM (inactive) each time.

For the compound `CCOC(=O)C1C(c2ccc([N+](=O)[O-])cc2)NC(c2ccc([N+](=O)[O-])cc2)C(C(=O)OC)S1(=O)=O` (centres undefined), the GI50 with M19-MEL, in the assay on HOP-18, in the assay on KM-20L2, with SNB-78, with XF498 and with LXFL 529 was > 100 µM (inactive) in each case. The GI50 with DLD-1 and with DMS-273 was > 100 µM (inactive) each time.

Turning to `C/C=C(\CCOS(=O)(=O)c1ccc(C)cc1)[Si](C)(C)C`, the GI50 in the assay on M19-MEL, in the assay on HOP-18, in the assay on RXF 631, with KM-20L2, in the assay on SNB-78 and in the assay with XF498 was > 100 µM (inactive) each time. The GI50 in the assay with LXFL 529, in the assay on DLD-1 and in the assay with DMS-273 was > 100 µM (inactive) throughout.

For the compound `COC(=O)c1cc2c(c(C(=O)OC)c1O)C(=O)C=CC2=O`, the GI50 in the assay on M19-MEL is > 43.8 µM (inactive); in the assay on HOP-18, 4.88 µM (inactive); with RXF 631, 34.8 µM (inactive); in the assay with KM-20L2, > 41.6 µM (inactive); with SNB-78, > 42.8 µM (inactive); in the assay on XF498, > 9.1 µM (inactive). Moreover, the GI50 is 11.6 µM (inactive) with LXFL 529, > 21.5 µM (inactive) in the assay with DLD-1 and 34.1 µM (inactive) in the assay on DMS-273.

As for `COc1ccc2nc(-c3ccccn3)cc(O)c2c1`, the GI50 is 31.8 µM (inactive) with M19-MEL; 61.7 µM (inactive) in the assay on HOP-18; 85.1 µM (inactive) in the assay with RXF 631; 99.3 µM (inactive) in the assay with SNB-78; 41.5 µM (inactive) in the assay on LXFL 529; 52.6 µM (inactive) in the assay on DLD-1.

As to `S=c1cc(S)c2c(=S)sc3nc4ccccn4c(=S)c3c2s1`, the GI50 in the assay on M19-MEL was 35.5 µM (inactive); with HOP-18 it was > 100 µM (inactive); in the assay with KM-20L2, 46.3 µM (inactive); with SNB-78 it was > 100 µM (inactive); with XF498 it was > 100 µM (inactive); with DLD-1, > 100 µM (inactive). Besides, in the assay on DMS-273, the GI50 was 63.4 µM (inactive).
